Measurements published in patent publication US20080194529A1 (AUSPEX PHARMACEUTICALS, INC., priority 2007, published 2008).

Experiments:
[1] = format: in vitro ADME; settings: topical or ocular, 5 microgram per mL
Method: Liver microsomal stability assays were conducted at 1 mg per mL liver microsome protein with an NADPH-generating system in 2% NaHCO3 (2.2 mM NADPH, 25.6 mM glucose 6-phosphate, 6 units per mL glucose 6-phosphate dehydrogenase and 3.3 mM MgCl2). Test compounds were prepared as solutions in 20% acetonitrile-water and added to the assay mixture (final assay concentration 5 microgram per mL) and incubated at 37° C. Final concentration of acetonitrile in the assay were <1%. Aliquots (50 μL) were taken out at times 0, 15, 30, 45, and 60 minutes, and diluted with ice cold acetonitrile (200 μL) to stop the reactions. Samples were centrifuged at 12000 RPM for 10 minutes to precipitate proteins. Supernatants were transferred to microcentrifuge tubes and stored for LC/MS/MS analysis of the degradation half-life of the test compounds.

[2] = cited from earlier work

increase in the degradation half-life as compared to the non-isotopically enriched drug (udenafil) [1]	SMILES	side effects of chromatopsia, such as sensitivity to light and blurred vision, in patients taking the drug [2] [%]
12-15%	[2H]C([2H])(CC)c1nn(C)c2c(=O)[nH]c(-c3cc(S(=O)(=O)NCCC4CCCN4C)ccc3OCCC)nc12 (stereo not drawn) [Example 5, d2-3-(1-Methyl-7-oxo-3-propyl-6,7-dihydro-1H-pyrazolo[4,3-d]pyrimidin-5-yl)-N-[2-(1-methyl-pyrrolidin-2-yl)-ethyl]-4-propoxy-benzenesulfonamide]	
	CN1CC(=O)N2[C@H](c3ccc4c(c3)OCO4)c3[nH]c4ccccc4c3C[C@@H]2C1=O [tadalafil]	< 0.1
12-15%	[2H]C([2H])(CC)c1nn(C([2H])([2H])[2H])c2c(=O)[nH]c(-c3cc(S(=O)(=O)NCCC4CCCN4C)ccc3OCCC)nc12 (stereo not drawn) [Example 4, d5-3-(1-Methyl-7-oxo-3-propyl-6,7-dihydro-1H-pyrazolo[4,3-d]pyrimidin-5-yl)-N-[2-(1-methyl-pyrrolidin-2-yl)-ethyl]-4-propoxy-benzenesulfonamide]	
